# Laboratory results from patent US20010031760A1, “Method of treating a patient having precancerous lesions with quinazoline derivatives” (priority 1995, published 2001).
# Counter-ions that a name gives are not always drawn.
row,melting point,SMILES
1,274 to 277 °C (dec.),COc1cc2nc(N3CCN(C(=O)c4cscn4)CC3)nc(N)c2cc1OC.Cl
2,263 to 264 °C (dec.),COc1cc2nc(N3CCN(C(=O)c4cc(C)no4)CC3)nc(N)c2cc1OC.Cl
3,295 to 297 °C,COc1cc2nc(N3CCN(C(=O)c4cnns4)CC3)nc(N)c2cc1OC.Cl
4,282 to 284 °C,COc1cc2nc(N3CCN(C(=O)C4CCCC4)CC3)nc(NN)c2cc1OC.Cl
5,291 to 294 °C (dec.),COc1cc2nc(N3CCN(C(=O)c4cocn4)CC3)nc(N)c2cc1OC.Cl
6,273 to 276 °C (dec.),COc1cc2nc(N3CCN(C(=O)c4nccs4)CC3)nc(N)c2cc1OC.Cl
7,286 to 287 °C (dec.),COc1cc2nc(N3CCN(C(=O)c4cnsc4)CC3)nc(N)c2cc1OC.Cl
8,280 to 281 °C (dec.),COc1cc2nc(N3CCN(C(=O)c4cncs4)CC3)nc(N)c2cc1OC.Cl
9,278 to 280 °C (dec.),COc1cc2nc(N3CCN(C(=O)c4coc(C)n4)CC3)nc(N)c2cc1OC.Cl
10,260 to 263 °C (dec.),COc1cc2nc(N3CCN(C(=O)c4csc(C)n4)CC3)nc(N)c2cc1OC.Cl
11,234 to 236 °C,"COc1cc2nc(N3CCN(C(=O)C4CC=CCC4)CC3)nc(N)c2cc1OC (stereo not drawn) [Example 132, 4-Amino-2-[4-(3-cyclohexenylcarbonyl)-1-piperazinyl]-6,7-dimethoxyquinazoline]"
12,283.5 to 288 °C (dec.),COc1cc2nc(N3CCN(C(=O)c4ocnc4C)CC3)nc(N)c2cc1OC.Cl
13,270 °C (dec.),COc1cc2nc(N3CCN(C(=O)c4csnn4)CC3)nc(N)c2cc1OC.Cl
14,225 to 260 °C (dec.),COc1cc2nc(N3CCN(C(=O)c4cnoc4)CC3)nc(N)c2cc1OC.Cl
15,271 to 273 °C (dec.),COc1cc2nc(N3CCN(C(=O)c4cc(C)on4)CC3)nc(N)c2cc1OC.Cl
16,300 to 301 °C (dec.),COc1cc2nc(N3CCN(C(=O)c4conc4C)CC3)nc(N)c2cc1OC.Cl
17,279 to 280 °C (dec.),"COc1cc2nc(N3CCN(C(=O)C4CCCC4)CC3)nc(N)c2cc1OC (as salt: hydrochloride) [Example 127, 4-Amino-2-[4-(cyclopentylcarbonyl)-1-piperazinyl]-6,7-dimethoxyquinazoline]"
18,268 to 273 °C (dec.),COc1cc2nc(N3CCN(C(=O)c4ccon4)CC3)nc(N)c2cc1OC.Cl
